Results taken from patent US20230277543A1, “COMPOSITIONS AND METHODS FOR TREATING DISEASES ASSOCIATED WITH ELEVATED ARGININE VASOPRESSIN LEVELS” (The United States Government As Represented By The …, priority 2022, published 2023).

Legend:
AVP gene = assay: mRNA expression of AVP in primary cultures of rat hypothalamic cells; type: cell-based
Source text: Alternatively, the observed in vivo effect of ticagrelor in mice can be the due to a ticagrelor metabolite such as AR-C124910XX or AR-C133913XX, which may bind to hypothalamic cells at a site other than P2Y12 receptor and exert inhibitory effect on the production of AVP. […] Based on this observation on cultured hypothalamic cells and the unequivocal data obtained from the primary cultures of rat inner medullary collecting duct cells, the observed in vivo effect of ticagrelor on decreased AVP production is mediated by the action of one or both metabolites of ticagrelor (AR-C124910XX or AR-C133913XX).

[1] = major metabolite of ticagrelor; cited from earlier work
rodent models of ADPKD = conditions: by reducing cAMP production in the kidney; cited from earlier work
rats = conditions: administration to rats
Source text: The blockade of P2Y12 receptor by PSB-0739 on AVP gene expression in cultured rat hypothalamic cells was studied.

mice = assay: urinary concentrating ability and AVP production in mice; type: in vivo; conditions: for urinary excretion of AVP: ticagrelor effect dose-dependent
Protocol: The effect of prasugrel on urinary concentration ability in mice was also tested and the same findings as clopidogrel were observed.
Both clopidogrel bisulfate and prasugrel belong to thienopyridine group of drugs, and thus both are prodrugs that need to be metabolized in the liver releasing their active metabolites that block the platelet P2Y12 receptor.

[2] = tested on: rat inner medullary collecting duct cells; assay: dDAVP-induced AQP2/AQP3 mRNA expression and cAMP production in primary cultures of rat inner medullary collecting duct cells; type: cell-based
Source text: In sum, ticagrelor binds to P2Y12 receptor in medullary collecting duct cells and enhances the effect on dDAVP on the mRNA expression of AQP2 and AQP3 water channels and cAMP production. Thus, the observed decreased urinary concentration in ticagrelor-treated mice was not because of the effect of ticagrelor on renal medullary collecting duct.

CYP3A4 = CYP3A4 (Homo sapiens, UniProt P08684); conditions: cited from earlier work
vasopressin V2 receptor = vasopressin V2 receptor (Homo sapiens, UniProt P30518); conditions: chronic blockade of vasopressin V2 receptor; cited from earlier work
patients = conditions: in a vast majority of patients; cited from earlier work

Sequence of vasopressin V2 receptor (P30518 whole entry, species assumed): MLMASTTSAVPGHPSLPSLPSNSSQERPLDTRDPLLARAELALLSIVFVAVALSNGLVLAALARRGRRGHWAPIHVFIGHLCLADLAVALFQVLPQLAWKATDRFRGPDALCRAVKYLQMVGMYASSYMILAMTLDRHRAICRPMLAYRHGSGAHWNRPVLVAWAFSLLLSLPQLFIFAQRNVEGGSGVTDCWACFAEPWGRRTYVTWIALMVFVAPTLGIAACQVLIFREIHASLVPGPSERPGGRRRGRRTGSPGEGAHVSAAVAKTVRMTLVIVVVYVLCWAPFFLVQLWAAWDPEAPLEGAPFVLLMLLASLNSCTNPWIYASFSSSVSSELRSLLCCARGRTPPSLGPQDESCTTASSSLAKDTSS
Sequence of CYP3A4 (P08684 whole entry): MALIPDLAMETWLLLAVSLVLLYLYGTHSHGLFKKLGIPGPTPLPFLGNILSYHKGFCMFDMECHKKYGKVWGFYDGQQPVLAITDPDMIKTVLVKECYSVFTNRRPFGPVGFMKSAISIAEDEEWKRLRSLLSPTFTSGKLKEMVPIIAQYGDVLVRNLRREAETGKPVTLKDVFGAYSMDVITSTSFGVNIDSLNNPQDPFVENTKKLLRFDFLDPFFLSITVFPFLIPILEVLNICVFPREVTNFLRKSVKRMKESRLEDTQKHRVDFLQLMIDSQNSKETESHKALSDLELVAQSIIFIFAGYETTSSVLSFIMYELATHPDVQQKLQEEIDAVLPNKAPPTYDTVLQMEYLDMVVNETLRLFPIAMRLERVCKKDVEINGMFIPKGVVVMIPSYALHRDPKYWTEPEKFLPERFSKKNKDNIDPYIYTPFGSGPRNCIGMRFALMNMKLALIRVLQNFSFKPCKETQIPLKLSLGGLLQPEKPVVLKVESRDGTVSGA

Nc1ncnc2c1ncn2[C@@H]1O[C@H](COP(=O)(O)OP(=O)(O)O)[C@@H](O)[C@H]1O [ADP]
effect of PSB-0739 on AVP gene expression (AVP gene; cultured rat hypothalamic cells, combination with PSB-0739, 24 hours): blocked

CCCSc1nc(N[C@@H]2C[C@H]2c2ccc(F)c(F)c2)c2nnn([C@@H]3C[C@H](O)[C@@H](O)[C@H]3O)c2n1 [AR-C124910XX]
where the metabolite is found [1]: mostly in plasma and feces

CCCSc1nc(N)c2nnn([C@@H]3C[C@H](OCCO)[C@@H](O)[C@H]3O)c2n1 [AR-C133913XX]
where the metabolite is found [1]: urine and feces

Cc1ccccc1C(=O)Nc1ccc(C(=O)N2CCCC(N(C)C)c3ccccc32)cc1 (centres unmarked) [OPC-31260]
cystogenesis (rodent models of ADPKD): consistently inhibited

Nc1c(S(=O)(=O)O)cc(Nc2ccc(Nc3ccccc3)c(S(=O)(=O)O)c2)c2c1C(=O)c1ccccc1C2=O [PSB-0739]
mRNA expression of the AVP gene (AVP gene; cultured rat hypothalamic cells, exposed for 24 hours, blockade of P2Y12 receptor): significantly increased

COC(=O)[C@H](c1ccccc1Cl)N1CCc2sccc2C1 [clopidogrel]
AVP production (rats): increase

CC(=O)Oc1cc2c(s1)CCN(C(C(=O)C1CC1)c1ccccc1F)C2 (centres unmarked) [prasugrel]
protein abundance of AQP2 in the kidney medulla (mice; administered to mice): significantly increased | urine concentrating ability (mice; administered to mice): significantly increased | urinary excretion of AVP (mice; administered to mice): significantly increased

CCCSc1nc(N[C@@H]2C[C@H]2c2ccc(F)c(F)c2)c2nnn([C@@H]3C[C@H](OCCO)[C@@H](O)[C@H]3O)c2n1 [ticagrelor]
baseline mRNA expression of AVP (AVP gene; cultured hypothalamic cells): ~1.8 fold | urine concentrating ability (mice; administered to mice): dilution of urine | urinary excretion of AVP (mice; administered to mice): decreased | urine flow (mice; mice, dose-dependent): increased | dDAVP-induced increase in cAMP production [2]: did not interfere | mRNA expression of dDAVP-induced AQP2 water channel protein [2]: concentration-dependent increases | mRNA expression of dDAVP-induced AQP3 water channel protein [2]: concentration-dependent increases

Cc1ccccc1C(=O)Nc1ccc(C(=O)N2CCCC(O)c3cc(Cl)ccc32)c(C)c1 (centres unmarked) [tolvaptan]
metabolizing enzyme system (CYP3A4): metabolized by the CYP3A4 system | endogenous production of AVP (vasopressin V2 receptor): increased | adverse effects (patients): severe polyuria (loss of water in the urine), nocturia (frequent urination in the night), thirst and dry mouth | cystogenesis (rodent models of ADPKD): consistently inhibited
